Assay results: patent US20140378424A1, “ESTROGEN RECEPTOR MODULATORS FOR REDUCING BODY WEIGHT” (RosScreening, Inc., priority 2011, published 2014)

Tests used:
[1] = Example 4: 8 week weight loss experiment in obese mice, compounds via drinking water; assay type: in vivo, Male C57BL6/J mice; settings: obese mice on high-fat diet, 8 weeks, most compounds 0.5 and 2.5 mg/kg/day, hexestrol 0.125 to 2 mg/kg/day
Protocol: An 8 week experiment was performed to investigate the ability of various estrogen modulating compounds to induce weight loss in obese mice. Male C57BL6/J mice were placed on a high fat diet for approximately 12 weeks prior to the study and initiated in the experiment at 18 weeks of age. Obese mice were allocated into cohorts of 6 mice per compound and housed at a density of 3 per cage. Over 8 weeks, mice were placed on a high-fat diet ad libitum and compounds were provided via drinking water. Most compounds were assigned to two treatment groups with doses of 0.5 mg/kg/day and 2.5 mg/kg/day. Hexestrol was assigned to 5 treatment groups ranging between 0.125 mg/kg/day and 2 mg/kg/day. Weight measurements of each mouse were taken once per week over 8 weeks.

[2] = Example 1 Phase 1: prevention of weight gain in lean mice placed on high fat diet, drug via drinking water for 8 weeks; assay type: in vivo, Male C57BL6/J mice; settings: for lean mouse body weight accumulation over the 8 week period: drug in drinking water, vs control mice
Protocol: (§1) Male C57BL6/J mice were tested as follows. The animal room was lighted entirely with artificial fluorescent lighting on controlled 12 hr light/dark cycle (6 a.m. to 6 p.m. light). The normal temperature and relative humidity ranges in the animal rooms were maintained at 22±4° C. and 50±15%, respectively. The animal room was set for 15 air exchanges per hour. Filtered tap water acidified to a pH of 2.5 to 3.0 was provided ad libitum. High fat diet was provided ad libitum.
After a 1 week acclimation, the mice were grouped into cohorts of 6 mice each. 6 DIO (diet induced obesity) and 6 lean C57BL6/J mice were used as naïve controls. Each drug was administered via drinking water for 8 weeks. The drug containing drinking water solutions were made fresh weekly. Water intake, food intake, and body weights were recorded weekly.
This experiment was run in two phases, Phase 1 (prevention of weight gain in lean mice) and Phase 2 (weight loss in obese mice). In the phase 1 experiment, the mice were placed on high fat diet at the same time administration of the drug was initiated. In the phase 2 experiment, drug treatment was initiated on 18 week old mice, which were previously on a high fat diet for approximately 12 weeks. In addition to the measurements noted above, a single DEXA Scan analysis was ran on the mice in Phase 2. After treatment, mice underwent body tissue composition analysis by Echo MRI (NMR) to measure their fat and lean mass content.
(§2) Body weight change was calculated for each mouse by subtracting the body weight on the first day of dosing (baseline) from the body weight on the last day of dosing (final) and calculating the percent change from baseline body weight: [=100*(Final Weight−BaselineWeight)/BaselineWeight]. Average percent body weight change was then calculated for each treatment group. Error bars represent standard error of the mean (SEM).
Food intake per mouse per day was calculated based on food intake per cage. Mean food intake for each treatment group was then calculated weighted by the number of mice per cage. Similarly, water intake per mouse per day was calculated based on water intake per cage. Mean water intake for each treatment group was then calculated weighted by the number of mice per cage.
In both phase 1 and 2 studies, the drugs were administered through the water given to the mice. The concentration of each drug in the water is provided below:
Diethylstilbestrol: 2 mg/500 mL (1 mg/kg/day)
Raloxifene: 20 mg/500 mL (10 mg/kg/day)
Tamoxifen: 4 mg/500 mL (2 mg/kg/day)
Clomiphene: 10 mg/500 mL (5 mg/kg/day)
Hexestrol: 4 mg/500 mL (2 mg/kg/day)
A mouse typically drinks about 5 mL of water a day.
Phase 1 (Prevention of Weight Gain in Lean Mice)

[3] = Example 3: 8 week weight loss experiment in obese mice, compound in drinking water or feed; assay type: in vivo, male C57BL6/J mice; settings: for body weight in comparison to controls / body weight reduction from controls: 8 weeks; for fat tissue mass (NMR body composition analysis): after 8 weeks
Protocol: (§3) An 8 week long weight loss experiment was performed on obese 18 week old male C57BL6/J mice having been on a high fat diet for approximately 12 weeks. The estrogen modulating compound treatment groups (hexestrol, clomiphene, raloxifene, and tamoxifen) were either provided in drinking water or feed. Obese mice were allocated into cohorts of 6 mice per compound per treatment type and housed at a density of 1 mouse per cage. Water treatment group mice were placed on a high fat diet ad libitum with compound provided via drinking water. Each feed treatment group received a specially formulated high fat diet containing their corresponding compound ad libitum and normal drinking water. Weight measurements of each mouse were taken twice per week over 8 weeks. Food intake per mouse per day was also recorded.
(§4) At the end of 8 weeks mice underwent a body tissue composition analysis by Echo MRI (NMR), an intraperitoneal glucose tolerance test (IPGTT), and an oral glucose tolerance test (OGTT). For IPGTT, each mouse received an intraperitoneal glucose solution injection of 1 g glucose/kg body weight. Serum glucose concentration was measured pre-injection, and 30, 60, and 90 minutes post-injection. For OGTT, each mouse received an oral glucose solution dose of 1 g glucose/kg body weight. Serum glucose was measured before the oral dose, and 15, 30, 90, and 120 minutes after oral dose.

[4] = Example 3: intraperitoneal glucose tolerance test (IPGTT) in obese mice after 8 weeks of treatment; assay type: in vivo, male C57BL6/J mice; settings: hexestrol water treated mice, 1 mg/kg/day
Protocol: as §3, §4

[5] = Example 3: oral glucose tolerance test (OGTT) in obese mice after 8 weeks of treatment; assay type: in vivo, male C57BL6/J mice; settings: hexestrol water treated mice, 1 mg/kg/day, 1 g glucose/kg oral
Protocol: as §3, §4

[6] = Example 1 Phase 2: weight loss in obese mice, drug via drinking water for 8 weeks; assay type: in vivo, Male C57BL6/J mice
Protocol: as §1
After a 1 week acclimation, the mice were grouped into cohorts of 6 mice each. 6 DIO (diet induced obesity) and 6 lean C57BL6/J mice were used as naïve controls. Each drug was administered via drinking water for 8 weeks. […] Water intake, food intake, and body weights were recorded weekly. […]
as §2, with “Error bars represent standard error of the mean (SEM).” left out
Food intake per mouse per day was calculated based on food intake per cage. Mean food intake for each treatment group was then calculated weighted by the number of mice per cage. Similarly, water intake per mouse per day was calculated based on water intake per cage. […]

| SMILES | body weight in comparison to the control group [1] | lean mouse body weight accumulation over the 8 week period [2] | body weight in comparison to controls ([3]; feed treatment group) | body weight in comparison to controls ([3]; water treatment group) | fat tissue mass (NMR body composition analysis) ([3]; feed treated mice) | further results |
| --- | --- | --- | --- | --- | --- | --- |
| C/C=C(/C(=C/C)c1ccc(O)cc1)c1ccc(O)cc1 [Dienestrol, dienestrol] | significant reduction |  |  |  |  |  |
| CN(C)CCOc1ccc(/C(=C(/CCCl)c2ccccc2)c2ccccc2)cc1 [toremifene] | significant reduction |  |  |  |  |  |
| O=C(c1ccc(OCCN2CCCCC2)cc1)c1c(-c2ccc(O)cc2)sc2cc(O)ccc12 [raloxifene] |  | significant decrease | significant reduction | significant reduction |  |  |
| CC[C@H](c1ccc(O)cc1)[C@@H](CC)c1ccc(O)cc1 [hexestrol] | significant reduction | significant decrease | significant reduction | significant reduction | significant decrease | reduction of body weight accumulation from control mice ([2]; 8 weeks, hexestrol 2 mg/kg/day in drinking water): 35.0±11.3%; body weight reduction from controls ([3]; feed treatment group): 31.7±4.5%; body weight reduction from controls ([3]; water treatment group): 30.8±9.7%; fat tissue mass (NMR body composition analysis) ([3]; water treated mice): significant decrease; serum glucose concentration upon injection of the glucose solution (IPGTT) ([4]; 1 g glucose/kg intraperitoneal, up to 90 minutes post-injection): remains static; starting serum glucose concentration (IPGTT) ([4]; pre-injection, in comparison to controls): significantly lower; increase of serum glucose concentration upon an oral dose of glucose (OGTT) ([5]; in comparison to controls): increases to a lesser amount; time at which serum glucose returns back to baseline (OGTT) ([5]; post-dose): ≤ 90 min |
| CCN(CC)CCOc1ccc(C(=C(Cl)c2ccccc2)c2ccccc2)cc1 [clomiphene] |  | significant decrease | significant reduction | significant reduction | significant decrease | change in body weight ([6]; 8 weeks, clomiphene 5 mg/kg/day in drinking water): significant; fat tissue mass (NMR body composition analysis) ([6]; after 8 weeks, in comparison to control mice): reduction in fat tissue mass |
| CC/C(=C(/CC)c1ccc(O)cc1)c1ccc(O)cc1 [diethylstilbestrol] |  | significant decrease |  |  |  |  |
| CC/C(=C(\c1ccccc1)c1ccc(OCCN(C)C)cc1)c1ccccc1 [tamoxifen] |  | significant decrease | significant reduction | significant reduction | significant decrease | fat tissue mass (NMR body composition analysis) ([3]; water treated mice): significant decrease |
| C[C@]12CC[C@@H]3c4ccc(O)cc4CC[C@H]3[C@@H]1CC[C@@H]2O [17β-estradiol] | significant reduction |  |  |  |  |  |
